Tested on: mice
Assay: acute toxic test using mice
Format: in vivo
Conditions: administered orally at 5 g/kg
From the text: The safety of the theanine used in the present invention is high. […] In addition, especially L-theanine is known as the main component of deliciousness (umami) of tea, and is also used as a food additive for the use of deliciousness, and there is no limitation in its amount according to the Japanese Food Sanitation Act. Moreover, contrary to the conventional medicament for ameliorating sleep disorders, since dependence on the theanine is not found at all, the sleep can be promoted safely and effectively by the use of the composition, food or medicament of the present invention, whereby moderating or ameliorating the sleep disorders.

Structure (SMILES): CCNC(=O)CC[C@H](N)C(=O)O [theanine, γ-glutamylethylamide]
- abnormality in the general state and body weight: no abnormality
- death cases: no death cases
